Paper PMC10794144, “A novel antibiotic class targeting the lipopolysaccharide transporter” (Nature, 2024)

Key:
[1] = system: A. baumannii; assay: microbe, parasite or virus in culture
How it was run: (§1)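 MIC was taken as the lowest concentration without visible growth, or past which OD600 no longer fell. Testing followed CLSI M07 and M100 broth microdilution, using 0.5 McFarland-derived inocula in CAMHB (LB for A. baylyi isolates).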

[2] = system: K. pneumoniae ATCC 700603; assay: microbe, parasite or virus in culture
How it was run: as §1

CN1C(=O)[C@H](CCCCN)NC(=O)[C@H](CCCN)NCc2cccnc2Sc2c(Cl)ccc(Cl)c2CNC(=O)[C@@H]1Cc1c[nH]c2ccccc12 [RO7075573]
4- to 64 fold: Fold more potent than RO7036668 ([1]; panel of A. baumannii)
64 mg/L: MIC 100% ([1]; ROB08708, Study LGC295147) | MIC 100% ([1]; ROB08708, Study LGC299544) | MIC 100% ([1]; ROB08708, Study LGC308175) | MIC 100% ([1]; ROB08708, Study ROC012) | MIC 100% ([1]; ROB08709, Study LGC285582) | MIC 100% ([1]; ROB08709, Study LGC286210) | MIC 100% ([1]; ROB08709, Study LGC295147) | MIC 100% ([1]; ROB08709, Study LGC296813) | MIC 100% ([1]; ROB08709, Study LGC299544) | MIC 100% ([1]; ROB08709, Study LGC301026) | MIC 100% ([1]; ROB08709, Study ROC010) | MIC 100% ([1]; ROB08709, Study ROC012) | MIC 100% ([1]; ROB08710, Study LGC282160) | MIC 100% ([1]; ROB08710, Study LGC285582) | MIC 100% ([1]; ROB08710, Study LGC286210) | MIC 100% ([1]; ROB08710, Study LGC296813) | MIC 100% ([1]; ROB08710, Study LGC299544) | MIC 100% ([1]; ROB08710, Study LGC301026)
>64 mg/L: MIC 100% ([1]; ROB08708, Study LGC294355) | MIC 100% ([1]; ROB08708, Study LGC296813) | MIC 100% ([1]; ROB08708, Study LGC301026) | MIC 100% ([1]; ROB08709, Study LGC282160) | MIC 100% ([1]; ROB08709, Study LGC284879) | MIC 100% ([1]; ROB08709, Study LGC293598) | MIC 100% ([1]; ROB08709, Study LGC294355) | MIC 100% ([1]; ROB08709, Study LGC308175) | MIC 100% ([1]; ROB08710, Study LGC284879) | MIC 100% ([1]; ROB08710, Study LGC293598) | MIC 100% ([1]; ROB08710, Study LGC294355) | MIC 100% ([2]; Study LGC282160) | MIC 100% ([2]; Study LGC284879) | MIC 100% ([2]; Study LGC285582) | MIC 100% ([2]; Study LGC286210) | MIC 100% ([2]; Study LGC293598) | MIC 100% ([2]; Study LGC294355) | MIC 100% ([2]; Study LGC295147) | MIC 100% ([2]; Study LGC296813) | MIC 100% ([2]; Study LGC299544) | MIC 100% ([2]; Study LGC301026) | MIC 100% ([2]; Study LGC308175) | MIC 100% ([2]; Study ROC010) | MIC 100% ([2]; Study ROC012)
16 mg/L: MIC 100% ([1]; ROB08708, Study ROC010) | MIC 100% ([1]; ROB08709, Study LGC281440)
32 mg/L: MIC 100% ([1]; ROB08710, Study LGC295147) | MIC 100% ([1]; ROB08710, Study LGC308175) | MIC 100% ([1]; ROB08710, Study ROC012) | MIC 100% ([2]; Study LGC281440)
0.5 mg/L: MIC 80% ([1]; ROB08710, Study LGC294355) | MIC 80% ([1]; ROB08710, Study LGC299544) | MIC 100% ([1]; ROB08710, Study ROC010)
8 mg/L: MIC 100% ([1]; ROB08710, Study LGC281440)
≤0.06 mg/L: MIC 80% ([1]; ROB08708, Study LGC308175)
0.25 mg/L: MIC 80% ([1]; ROB08709, Study LGC284879) | MIC 80% ([1]; ROB08709, Study LGC299544) | MIC 80% ([1]; ROB08709, Study ROC010) | MIC 80% ([1]; ROB08709, Study ROC012) | MIC 80% ([1]; ROB08710, Study LGC281440) | MIC 80% ([1]; ROB08710, Study LGC282160) | MIC 80% ([1]; ROB08710, Study LGC284879) | MIC 80% ([1]; ROB08710, Study LGC285582) | MIC 80% ([1]; ROB08710, Study ROC010) | MIC 80% ([1]; ROB08710, Study ROC012)
> 64 µg/mL: MIC ([2]; Klebsiella pneumoniae, ATCC700603)
0.12 mg/L: MIC 80% ([1]; ROB08708, Study LGC295147) | MIC 80% ([1]; ROB08708, Study LGC296813) | MIC 80% ([1]; ROB08708, Study LGC299544) | MIC 80% ([1]; ROB08708, Study LGC301026) | MIC 80% ([1]; ROB08708, Study ROC010) | MIC 80% ([1]; ROB08708, Study ROC012) | MIC 80% ([1]; ROB08709, Study LGC281440) | MIC 80% ([1]; ROB08709, Study LGC282160) | MIC 80% ([1]; ROB08709, Study LGC285582) | MIC 80% ([1]; ROB08709, Study LGC286210) | MIC 80% ([1]; ROB08709, Study LGC293598) | MIC 80% ([1]; ROB08709, Study LGC294355) | MIC 80% ([1]; ROB08709, Study LGC295147) | MIC 80% ([1]; ROB08709, Study LGC296813) | MIC 80% ([1]; ROB08709, Study LGC301026) | MIC 80% ([1]; ROB08709, Study LGC308175) | MIC 80% ([1]; ROB08710, Study LGC286210) | MIC 80% ([1]; ROB08710, Study LGC293598) | MIC 80% ([1]; ROB08710, Study LGC295147) | MIC 80% ([1]; ROB08710, Study LGC296813) | MIC 80% ([1]; ROB08710, Study LGC301026) | MIC 80% ([1]; ROB08710, Study LGC308175)
